Data: patent US9499823B2, “Constructs expressing chimeric receptors and use thereof for the controlled activation of defence response to pathogens in plants” (priority 2009, dated 2016)

B1: EFR: Arabidopsis LRR receptor kinase Elongation Factor Tu Receptor (AT5G20480); GFP-fused control (protein)
chain: RFSNETDMQALLEFKSQVSENNKREVLASWNHSSPFCNWIGVTCGRRRERVISLNLGGFKLTGVISPSIGNLSFLRLLNLADNSFGSTIPQKVGRLFRLQYLNMSYNLLEGRIPSSLSNCSRLSTVDLSSNHLGHGVPSELGSLSKLAILDLSKNNLTGNFPASLGNLTSLQKLDFAYNQMRGEIPDEVARLTQMVFFQIALNSFSGGFPPALYNISSLESLSLADNSFSGNLRADFGYLLPNLRRLLLGTNQFTGAIPKTLANISSLERFDISSNYLSGSIPLSFGKLRNLWWLGIRNNSLGNNSSSGLEFIGAVANCTQLEYLDVGYNRLGGELPASIANLSTTLTSLFLGQNLISGTIPHDIGNLVSLQELSLETNMLSGELPVSFGKLLNLQVVDLYSNAISGEIPSYFGNMTRLQKLHLNSNSFHGRIPQSLGRCRYLLDLWMDTNRLNGTIPQEILQIPSLAYIDLSNNFLTGHFPEEVGKLELLVGLGASYNKLSGKMPQAIGGCLSMEFLFMQGNSFDGAIPDISRLVSLKNVDFSNNNLSGRIPRYLASLPSLRNLNLSMNKFEGRVPTTGVFRNATAVSVFGNTNICGGVREMQLKPCIVQASPRKRKPLSVRKKVVSGICIGIASLLLIIIVASLCWFMKRKKKNNASDGNPSDSTTLGMFHEKVSYEELHSATSRFSSTNLIGSGNFGNVFKGLLGPENKLVAVKVLNLLKHGATKSFMAECETFKGIRHRNLVKLITVCSSLDSEGNDFRALVYEFMPKGSLDMWLQLEDLERVNDHSRSLTPAEKLNIAIDVASALEYLHVHCHDPVAHCDIKPSNILLDDDLTAHVSDFGLAQLLYKYDRESFLNQFSSAGVRGTIGYAAPEYGMGGQPSIQGDVYSFGILLLEMFSGKKPTDESFAGDYNLHSYTKSILSGCTSSGGSNAIDEGLRLVLQVGIKCSEEYPRDRMRTDEAVRELISIRSKFFSSKTTITESPRDAPQSSPQEWMLNTDMHTM
B2: WEG: chimeric receptor: WAK1 ectodomain fused to the TM-iJM-kinase portion of EFR, GFP-fused (protein)
chain: QHQPGENCQNKCGNITIEYPFGISSGCYYPGNESFSITCKEDRPHVLSDIEVANFNHSGQLQVLLNRSSTCYDEQGKKTEEDSSFTLENLSLSANNKLTAVGCNALSLLDTFGMQNYSTACLSLCDSPPEADGECNGRGCCRVDVSAPLDSYTFETTSGRIKHMTSFHDFSPCTYAFLVEDDKFNFSSTEDLLNLRNVMRFPVLLDWSVGNQTCEQVGSTSICGGNSTCLDSTPRNGYICRCNEGFDGNPYLSAGCQDVNECTTSSTIHRHNCSDPKTCRNKVGGFYCKCQSGYRLDTTTMSCKRKEVVSGICIGIASLLLIIIVASLCWFMKRKKKNNASDGNPSDSTTLGMFHEKVSYEELHSATSRFSSTNLIGSGNFGNVFKGLLGPENKLVAVKVLNLLKHGATKSFMAECETFKGIRHRNLVKLITVCSSLDSEGNDFRALVYEFMPKGSLDMWLQLEDLERVNDHSRSLTPAEKLNIAIDVASALEYLHVHCHDPVAHCDIKPSNILLDDDLTAHVSDFGLAQLLYKYDRESFLNQFSSAGVRGTIGYAAPEYGMGGQPSIQGDVYSFGILLLEMFSGKKPTDESFAGDYNLHSYTKSILSGCTSSGGSNAIDEGLRLVLQVGIKCSEEYPRDRMRTDEAVRELISIRSKFFSSKTTITESPRDAPQSSPQEWMLNTDMHTM
modifications: left off: large carriers

Key:
[1] = tested on: agroinfiltrated Arabidopsis thaliana Col-0 leaves; assay: Receptor internalization: decrease of GFP fluorescence by confocal microscopy in agroinfiltrated Arabidopsis Col-0 leaves; type: cell-based; details: for decrease of plasma membrane-associated fluorescence signal: explants at 2 dpi; for fluorescence variation upon treatment with elfl8: 10 μM elfl8, 30 min, EFR up to 1 mM elicitor (data not shown); for fluorescence variation upon treatment with OGs: up to 30 min, no EDTA; for decrease of fluorescence from the cell membrane: OGs 100 μg/ml 30 min pre-stimulation, then 5 mM EDTA
Protocol: PCR templates are shown in bold. Primers listed in Table 1 are shown in capital letters. Stable transgenic lines were generated using the standard A. tumefaciens-mediated gene transfer procedure of inflorescence infiltration (Bent et al., 2006). Independent transformed plant pools were kept separate for the selection of independent transgenic lines based on their phosphinotrycin resistance and leaves GFP fluorescence. Tobacco and Arabidopsis transient transgenic lines were prepared by infiltrating with Agrobacterium tumefaciens carrying the individual constructs, as described by Reca (2008).
The GFP-dependent fluorescence was monitored from 2 to 4 days post infection in cells of the lower epidermis. Pieces of leaf were randomly cut from the infected area and mounted in water or supplemented with elicitors for microscopic observations. Flg22 and elfl8 were used at 10 μM while oligosaccharides were used at 100 μg/mL. Materials were analyzed using a Leica DM IRE epifluorescence microscope equipped with a digital cooled camera (DFC350FX R2; Leica). GFP fluorescence was excited with a 488-nm laser line, and emitted fluorescence was collected at 543-nm. The Leica Confocal Software and Adobe Photoshop 5.0 were used for post-acquisition image processing. All samples were imaged with the 40× or 100× oil objectives. Pictures were taken in Kahlman frame giving an average of 16 scans for the dynamics of internalization and 4 scans for the cellular localizations. […]
The dynamics of fluorescence localization upon treatment with elicitors was then studied. Whereas endocytosis of surface receptors upon ligand binding often occurs in animals (Warren and Landgraf 2006), this mechanism in plants has emerged only recently (Geldner & Robatzek 2008) and, so far, FLS2 is the only receptor involved in plant immunity shown to undergo endocytosis upon the specific stimulation with flg22 (Robatzek et al., 2006). The authors tested the effect of flg22 and elf 18, i.e. the peptides specifically recognized by FLS2 and EFR respectively, and oligogalacturonides with a degree of polymerization between 10 and 16 (OGs), which act as general elicitors of defense responses in several plants. Explants from agroinfiltrated Arabidopsis leaves at 2 dpi were treated with elicitors and then subjected to confocal microscopy analysis. […] Instead, when eJMC-expressing explants were stimulated with flg22, the fluorescent signal decreased by 25% and 40% after 20 min and 30 min, respectively (FIG. 3B).
The first chimeric receptor, indicated as WEG, comprised the WAK1 ectodomain fused to the TM-iJM-kinase portion of EFR and was designed to test the ability of the WAK1 ectodomain to perceive OGs and transmit the signal inside the cell. […] Both WEG and EWAK as well as WAK1 were fused to GFP and used in agroinfiltration experiments (FIG. 5A). […] Western-blot analysis using GFP-specific antibodies on proteins from IWF and microsomal fractions prepared from infiltrated leaves confirmed the plasma membrane localization of both fluorescent chimeras (FIG. 5D). The effect of OGs on the internalization of WEG was followed in agroinfiltrated Arabidopsis Col-0 leaves. […] This might be due to the inability of WEG to uncouple its ectodomain from pectins, since it is known that WAK1 strongly binds to pectin and only denaturing treatments allow its separation from cell wall (He et al., 1996). On the other hand, affinity studies have shown that WAK1 interact with cell wall pectins that are in a Ca^2+-induced conformation (i.e. the structures called “egg boxes”) and that the interaction is disrupted by adding a chelating agent such as EDTA (Decreux et al., 2005; Cabrera et al., 2008). The authors therefore tested whether OG-induced internalization of WEG occurred in the presence of 5 mM EDTA. WEG-expressing agroinfiltrated leaves were syringe-infiltrated with OGs and after 30 min the tissues were mounted in the presence of EDTA for confocal microscopy analysis. […]

[2] = tested on: ethylene biosynthesis in tobacco leaves; assay: Induction of ethylene biosynthesis in agroinfiltrated tobacco leaf explants; type: cell-based, Nicotiana tabacum; details: for ethylene release induced by flg22: flg22, 2 h, compared with EFR-expressing explants as negative controls
Protocol: F) Induction of ethylene biosynthesis in agroinfiltrated tobacco leaves expressing the fluorescent EFR, FLS2, TMC, eJMC and eJMC^Y859A. NC: negative control, represented by agroinfiltrated leaf tissues expressing fluorescent EFR or FLS2 and elicited with flg22 or elfl8, respectively. Results are averages±standard error (n=3).
Excised infiltrated leaf sectors were stimulated for 2 h with water or the elicitor ([…] and 100 μg/ml for OGs). Values are means±s.e.m. (N=3).
E) Induction of ethylene biosynthesis in agroinfiltrated tobacco leaves expressing EFR, WAK1, WEG and EWAK. Each construct was stimulated for 2 h with elfl8 (10 μM) or OGs (100 μg/mL). NC: negative control, represented by agroinfiltrated leaf tissue expressing EFR or FLS2 when OGs or elfl8, respectively, were used for elicitation. Error bars indicate the standard error of three independent replicates.
(A) Induction of ethylene biosynthesis in agroinfiltrated tobacco explants expressing EFR, WAK1, WEG and EWAK. […] Agroinfiltrated leaf tissues expressing EFR or WEG and elicited with OGs or elfl8 respectively, represented our negative control. Values are means±s.e.m. (N=3). (B) Elicitor-induced gene expression in untransformed Col-0 and Col-0 efr plants, and in transgenic Arabidopsis Col-0 efr plants stably expressing WEG. Accumulation of At3g22270 and At4g37640 transcripts was analysed by semi-quantitative PCR, using the UBQ5 gene for normalization. Adult leaves were syringe-infiltrated with water, OGs (25 μg/ml) or elfl8 (10 μM) for 3 h. The experiment was repeated three times with similar results. The same experiment was performed in a second independent transgenic line expressing WEG with similar results.
Approximately 150 mg of tobacco agroinfiltrated leaf were cut in small slices and extensively washed with sterile distilled water. The explants were placed in sealed 10 mL flasks containing 2 mL of sterile water alone or supplemented with 100 mg L^−1 OGs, or 1 μM flg22 or 10 μM elfl8. 450 μl headspace samples were withdrawn from the vial after 2 h treatment and analyzed by gas chromatography-mass spectrometry using an Agilent 6850A gas chromatograph coupled to a 5973N quadrupole mass selective detector (Agilent Technologies, Palo Alto, Calif., USA). Chromatographic separations were carried out an HP Plot-Q fused-silica capillary column (30 m×0.32 mm i.d.) coated with polystyrene-divinylbenzene (film thickness 0.20 μm) as stationary phase. Injection mode: splitless at a temperature of 220° C. The initial temperature of the oven was held at 50° C. for 8 min then ramped to 220° C. at a rate of 15° C./min and held for 5 min. Helium was used as carrier gas at a constant flow of 1.0 ml/min. Mass spectra were collected both in full scan and in SIM mode monitoring the ions m/z m/z 26, m/z 27 and m/z 28 (ionization energy 70 eV; ion source 280° C.; ion source vacuum 10^−5 Torr).

[3] = 10 μM flg22, after 20 min of stimulation
[4] = 10 μM flg22, after 30 min of stimulation

Molecule | decrease of plasma membrane-associated fluorescence signal [1, 3] [%] | decrease of plasma membrane-associated fluorescence signal [1, 4] [%] | decrease of fluorescence in the presence of EDTA upon stimulation with OGs ([1]; 100 μg/ml OGs, 5 mM EDTA) | ethylene release induced by flg22 [2] | fluorescence variation upon treatment with elfl8 [1] | fluorescence variation upon treatment with OGs ([1]; 100 μg/ml OGs) | ethylene accumulation upon stimulation with elfl8 ([2]; elfl8 10 μM, 2 h) | release of ethylene induced by elfl8 relative to negative control ([2]; elfl8 10 μM, 2 h, negative control FLS2-expressing explants) [times] | decrease of fluorescence in the presence of EDTA upon stimulation with flg22 ([1]; 10 μM flg22, 5 mM EDTA) | internalization in the presence of EDTA upon stimulation with oligomannuronides (OMs) ([1]; 100 μg/mL OMs, EDTA) | internalization in the presence of EDTA upon stimulation with 3-6 OGs ([1]; 100 μg/ml 3-6 OGs, EDTA) | decrease of fluorescence from the cell membrane ([1]; after 20 min) [%] | decrease of fluorescence from the cell membrane ([1]; after 30 min) [%] | ethylene accumulation induced by OGs relative to negative control ([2]; OGs 100 μg/mL, 2 h, negative control OG-stimulated EFR-expressing tissues) [times]
FLS2 [reference compound] | 15 | 30 | No decrease of fluorescence | only a weak response | – | – | – | – | – | – | – | – | – | –
eJMC: chimera (Arg806FLS2-Val650EFR): LRR and eJM domains of FLS2 fused upstream of TM, iJM and kinase domains of EFR, GFP-fused | 25 | 40 | – | significantly higher | did not induce any significant fluorescence variation | did not induce any significant fluorescence variation | did not | – | – | – | – | – | – | –
B1 | – | – | – | – | no significant decrease of fluorescence | – | accumulated ethylene | 3.8 | – | – | – | – | – | –
B2 | – | – | – | – | – | No decrease of the plasma membrane-associated fluorescence | – | – | No decrease of fluorescence | did not occur | did not occur | 15 | 25 | 2.4
